Source: a melting point compilation (Tetko et al.; mined from patent text by program, amines drawn as free bases though some values may be those of a salt)

melting point | SMILES
115 to 117 °C | CCCCOCCCNC(=O)c1cnc(C(=O)NCC(=O)OCCCC)c(OC)c1
230 to 235 °C | CC1CC(c2c(S(C)(=O)=O)ccc(C(=O)c3cnn(C)c3O)c2Cl)=NO1 (stereo not given)
118 to 120 °C | CCOC(=O)C(=O)Nc1ccc2ccccc2c1
121 to 122 °C | Oc1cc(O)c2c(-c3cc(F)cc(F)c3)c(Br)oc2c1
224 to 225 °C | N#Cc1cc(C(F)(F)F)[nH]c1-c1ccc(C=O)o1
322 to 325 °C | Cn1ccc2c3c(c(I)cc21)C(=O)NC3=O
198 to 200 °C | CCCOc1ccccc1-c1ccc([N+](=O)[O-])c(=O)[nH]1
218 to 220 °C | CN(C)C(=O)NS(=O)(=O)c1ccccc1OC(Cl)=CCl
97.8 to 98.4 °C | CC(=O)NC(Cc1ccccc1)C1CC(Cc2ccccc2)=NO1 (stereo not given)
71 to 73 °C | COc1nc(C)c(C)cc1[N+](=O)[O-]
101 to 105 °C | Cc1cc([N+](=O)[O-])cc(C)c1Cl
135 to 137 °C | COc1ccc2cnc(Cl)nc2c1C(C)C
78 to 79 °C | Cc1c(Cl)cccc1S(=O)(=O)C[N+](=O)[O-]
159 °C | Cn1ncc2c(=O)n3c(nc21)SC(c1ccccc1)C3c1ccccc1 (stereo not given)
208 to 210 °C | CNCC1(CF)CCN(c2c(F)cc3c(=O)c(C(=O)O)cn(C4CC4)c3c2OC)C1 (stereo not given)
113 to 114 °C | CCOC(=O)C1=C(CF)NC(CF)=C(C(=O)OCC)C1c1cccc([N+](=O)[O-])c1
220 °C | CC(C)c1nc(CO)n(CC2=CCC(=O)N=C2)c1Sc1cc(Cl)cc(Cl)c1
110 to 112 °C | N#CC1(C#N)CCOCC1
180 to 182 °C | COC(=O)c1cc(Oc2ccc([N+](=O)[O-])cc2)cc(Oc2ccc([N+](=O)[O-])cc2)c1
110 to 112 °C | COC(N)C(=O)NC(=O)OCc1ccccc1 (stereo not given)
87 to 90 °C | O=c1oc(-c2ccccc2)cc(O)c1C(Sc1ccccc1)C1CCCCC1 (stereo not given)

melting point | SMILES
238 to 240 °C | CC(C)n1nc(-c2nc(C(N)=O)c(N)nc2-c2cccs2)ccc1=O
242 to 245 °C | CCCCc1oc2ccccc2c1C(=O)Nc1ccc2c(Br)c(OCc3nn[nH]n3)ccc2c1
210 °C | COC(=S)c1nc(-c2ccccc2)c(N)nc1N
110 °C | CC1(C)COC1(Cn1cncn1)c1ccc(F)cc1 (stereo not given)
69 to 77 °C | COC(=O)c1c(F)cc(OCCNC(=O)C2Cc3ccccc3N2S(=O)(=O)c2ccc(-c3ccc(F)cc3F)cc2)cc1F (stereo not given)
243 to 244 °C | CCOC(=O)c1cn2c(=O)n(C)c3ccccc3n2c1=O
146 to 149 °C | CCCc1nc2c(N)nc3cc(OCCCNC(=O)OC(C)(C)C)ccc3c2s1
208 to 210 °C | Oc1ccc(-c2ccc3c(Br)c(O)ccc3c2)cc1
55 °C | COC(=O)C(O)c1ccc(Cl)cc1 (stereo not given)
84 to 86 °C | CC(C)(C)c1cc(CSCCC(=O)ON(Cc2ccccc2)Cc2ccccc2)cc(C(C)(C)C)c1O
192 to 193 °C | CC1(C(=O)c2c[nH]c3ncc(-c4cccc(N5CCCC5)c4)nc23)CCCCCC1
126 °C | CN(Cc1ccc(S(C)=O)cc1)S(=O)(=O)c1cn(S(=O)(=O)N(C)C)c(C#N)n1 (stereo not given)
232 to 237 °C | Nc1nc2ccccc2c2c1ncn2C1CC(O)C(CO)O1 (stereo not given)
196 °C | COc1cc2c(sc3nc(C)c(CO)n32)c(OC)c1OC
231 °C | CC(=O)C1=C(O)C(=C(C)Nc2cc(NC(=O)C(O)CO)cc(NC(=O)C(O)CO)c2)C(=O)OC1=O (stereo not given)
172 to 174 °C | C[C@]1(COC(=O)N2CCCc3cc(Cl)ccc32)Cn2cc([N+](=O)[O-])nc2O1
177 to 182 °C | COC(=O)c1ccccc1-c1ccc(CNc2nc(Cl)nc3ccsc23)cc1
80 to 86 °C | CNC(=O)C(Cc1ccc(OC)cc1)NC(=O)C(CC(C)C)C(S)CC(=O)OC (stereo not given)
222 °C | Cc1coc(NC(=S)Nc2c(C)cccc2Cl)n1
101 to 102 °C | O=C1C[C@@H]2[C@@H](/C=C/[C@@H](O)COc3cccc(Cl)c3)[C@H](OC(=O)c3ccccc3)C[C@@H]2O1

Second part, the compound before the results:

SMILES | melting point
COc1ccc(S(=O)(=O)N2C(=O)C(N)(c3ccccc3Cl)c3cc(Cl)ccc32)c(N)c1 (stereo not given) | 160 to 166 °C
O=C(NC1CC1)c1cc(Nc2nc(N3CCCC3c3ccccn3)nc3ccoc23)[nH]n1 (stereo not given) | 238 °C
Cc1ccc(C(C)C)c(-n2cc(-c3ccccc3)c(C)c2Cl)c1 | 103 °C
COC(=O)c1scc(Cl)c1O | 78 °C
CCn1cc(CN(C(=O)C2CCc3ccccc32)c2ccc(C(C)C)cc2)cn1 (stereo not given) | 83 to 84 °C
Cc1ncccc1COc1ccc(Cn2cc(CCC(=O)O)c(-c3ccccc3)c2)cc1 | 158 to 159 °C
O=C1N=CNC(O)C1C(=O)Nc1ccccc1 (stereo not given) | 200 to 208 °C
Nc1nc2ccccc2c2c1ncn2CCCCNC(=O)N1CCOCC1 | 177 to 180 °C
COc1ccc2c(c1)C(C(=O)N(Cc1ccc(N(C)C)cc1)c1ccc(C(C)C)cc1)CCO2 (stereo not given) | 82 to 84 °C
O=C1C2CC(c3ccc([N+](=O)[O-])cc3)(C2)C(=O)N1Cc1ccccc1 | 150 to 152 °C
CCCc1cccc2cc(C(=O)O)oc12 | 75 to 80 °C
CC(=O)OC1CCC2(C)C(=CCC3C2CCC2(C)C(OC(C)=O)CCC32)C1 (stereo not given) | 163 to 165 °C
O=C(Oc1ccccc1)N1CCC(Oc2ccc(F)cc2)CC1 | 98.5 to 100 °C
OC(CCNCc1ccccc1)(COc1ccc(Cl)cc1)c1ccccc1 (stereo not given) | 70 to 71 °C
CC(C)OC(=O)c1cc(Cl)c(Cl)c(Cl)n1 | 105 to 106 °C
N#Cc1ccc(N(CCCCOc2ccc(O)cc2)n2cnnc2)cc1 | 156 to 159 °C
CCOC(=O)/C=C/c1cc(C(F)(F)F)ccc1C(=O)NCC(F)(F)F | 162 °C
CC1(C)[C@H](c2nc(-c3ccc(F)cc3)no2)CC[C@]1(C)NCC(=O)N1C[C@@H](F)C[C@H]1C#N | 160 to 163 °C
CCC1(O)CC(=O)OCc2c1cc1n(c2=O)Cc2c-1nc1ccccc1c2C1CCCCC1 (stereo not given) | > 250 °C
CC(=O)OC1CC(OCc2ccccc2)C2COC1O2 (stereo not given) | 85 to 87 °C

SMILES | melting point
Cc1ccc2c(Cl)c(Cl)ccc2n1 | 84 to 85 °C
N#Cc1ccc(NC(=O)c2cc3ccccc3cc2O)c(OC(F)(F)F)c1 | 248 °C
O=C(O)c1ccc(/C=C\C(c2cc(Cl)c(Cl)c(Cl)c2)C(F)(F)F)cc1Br (stereo not given) | 54 to 64 °C
N#Cc1nn(-c2c(Cl)cc(C(F)(F)F)cc2Cl)c(N)c1-c1ccc(C(F)(F)F)o1 | 148 to 151 °C
CCN(C(=O)c1ccc(C(=O)c2cnc3ccccn23)cc1)c1ccccc1 | 141 to 145 °C
CC1(C)[C@@H]2CC3[C@H](C(N)=O)[C@@]3(C)C[C@@H]21 (stereo not given in full) | 122 °C
O=S(=O)(c1ccccc1)c1c[nH]c2cccc(CCO)c12 | 55 to 60 °C
Cc1cc(N2C(=O)N(CCCCCN3C(=O)N(c4ccc(C#N)c(C)c4)C(=O)C3(C)C)C(C)(C)C2=O)ccc1C#N | 148 to 149 °C
CCC1=Nc2c(C)nn(C)c2C2=NCCN12 | 148 to 150 °C
CCOC(=O)c1cn(NCC(=O)OC(C)(C)C)c2c(F)c(F)c(F)cc2c1=O | 99.5 to 102 °C
CC(C)Oc1cc(NC(=O)C2CCCCN2)c(F)cc1Cl (stereo not given) | 96 to 98 °C
CCCc1nc2c(N)nc3ccccc3c2n1CCCCCC(=O)N1CCOCC1 | 149 to 151 °C
CN(C)c1c(F)c(F)c(F)c2c1c(=O)c(C(=O)O)cn2C1COC1 | 173 to 175 °C
CCCCCCCCCCOc1ccc(Br)cc1C12CC3CC(CC(C3)C1)C2 | 69 to 70 °C
Cc1nc[nH]c1CSCCCNC(=N)N | 156 to 158 °C
O=C(O)c1cnc(N2CCN(CC3CC3)C2=O)s1 | 250 to 252 °C
Cc1nc(-c2ccccc2)nc(-c2cccc([N+](=O)[O-])c2)c1C(C)Br (stereo not given) | 133 to 134 °C
O=C(CCC(=O)N1CCC(c2ccc(Cl)cc2)CC1)c1ccc2c(c1)CCN(C1CCCCC1)CC2 | 128 to 130 °C
CS(=O)(=O)N(CCN1C(=O)c2ccccc2C1=O)c1c(Cl)c(Cl)cc2[nH]c(=O)c(=O)[nH]c12 | > 300 °C
O=S1N=C(NCCCN(Cc2ccccc2)c2ccccn2)C(NCc2cccnc2)=N1 (stereo not given) | 114 to 116 °C

SMILES | melting point
CN(CCNc1ccc([N+](=O)[O-])cc1)S(C)(=O)=O | 109 °C
Nc1cc(-c2ccoc2)ccc1Nc1cccc(C(=O)O)c1 | 211 to 212 °C
COc1ccc(-c2oc3cc(NS(C)(=O)=O)c(Oc4ccccc4)cc3c(=O)c2O)cc1OC | 222 to 224 °C
[N-]=[N+]=N[C@@H](C(=O)O)C(c1ccccc1)c1ccccc1 | 108 to 110 °C
COC(=O)c1ccc(C(=O)N2CCN(c3ncccc3NCC(C)C)CC2)nc1 | 82 to 84 °C
CN(C)C1(C#N)CCC(c2ccccc2)(N(C)C)CC1 (stereo not given) | 82 to 92 °C
COC1=NS(=O)(=O)N(C)C(OCCc2ccccc2)=N1 | 74 to 77 °C
O=c1[nH]c2scc(-c3ccccc3)c2[nH]c1=O | > 300 °C
COC(=O)CCc1cc2cc(Cl)ccc2n1S(=O)(=O)c1ccc(C(F)(F)F)cc1 | 82 to 86 °C
CNc1nc(-c2cccc(NC(=O)c3ccc(Cl)cc3)c2)c2cc(OC)c(OC)cc2n1 | 193 to 195 °C
COC(=O)c1cc(OC)cc(C(=O)OC)c1 | 108 to 109 °C
CCCN1Cc2c(Cl)nc(Cl)nc2N1 | 80 to 84 °C
C[C@@H](Nc1ncnc2cc(OC3CCC3)c([N+](=O)[O-])cc12)c1ccccc1 | 108 to 110 °C
O=C1C(c2ccccc2)=C2CCCCC2N1c1ccc(O)cc1 (stereo not given) | 168 °C
CO/C(=C1/C(C)=C(CC(=O)O)c2cc(F)ccc21)c1ccccc1 | 184 to 186 °C
CCOC(=O)N1CCC(NS(=O)(=O)c2ccc3ccccc3c2)CC1 | 128 °C
CC(C)CNC(=O)C(C)(C)N=NC(C)(C)C(=O)NCC(C)C | 100 °C
COC(=O)c1[nH]cnc1CCNC(=O)[C@H](Cc1ccccc1)NC(=O)[C@H](Cc1ccccc1)NC(=O)OC(C)(C)C | 155 to 159 °C
N#Cc1ccc(COc2ccc(CC(NC(=O)c3cc4ccc(-c5ccc(Cl)cc5)cc4o3)C(=O)O)cc2)cc1 (stereo not given) | 204 °C
